Experiments:
HeLa = assay: In vitro functional antagonism between flavonoid (quercetin) and compound; microscopic observation of cell morphologies; format: cell-based
Protocol: Three types of cells were employed (HeLa, ECV304, and HBL-100, purchased from ATCC), and for each type, 1×10^5 cells were seeded in a 10 cm dish and cultured in D-MEM/F-12 medium (Gibco BRL) for 18–20 hours. On the next day, the medium was changed to the same medium containing 1.0 μM quercetin (Sigma; hereinafter abbreviated to QCT), followed by culturing for an additional 2 days. The compound A was then added at a concentration of 600 nM, and 72 hours later observations under a microscope were made of cell morphologies.

FLAG-fused Vpr = target: T1, FLAG-fused Vpr (Human immunodeficiency virus type 1 group M subtype B, UniProt P12520); assay: In vitro direct binding of Vpr and compound; affinity precipitation with compound-immobilized Sepharose beads; design: species or system HIV
T1 construct: made in house; host or cells: TNT-coupled wheat germ extract in vitro transcription/translation (Promega), with 35S-methionine
From the text: A Vpr gene fused to N-terminal FLAG (SEQ ID NO:1) was obtained by PCR (polymerase chain reaction) using as a template pBT-1 (purchased from ATCC) into which the HIV genome without env had been incorporated. Primers utilized were synthetic DNAs having the following sequences (SEQ ID NOs:1 and 2). N-terminal FLAG: Asp Tyr Lys Asp Asp Asp Asp Lys (SEQ ID NO:1);
The DNA fragment of interest (300 bp) was recovered from PCR reaction products by agarose gel electrophoresis, and then cloned into the pGEM-T vector (Promega). This fragment was base analyzed on both plus and minus strands and was verified to correspond to the intended fused Vpr. The vector into which the Vpr gene fused to FLAG has been incorporated is hereinafter referred to as pGEM-T/Vpr-wt. […]
(§1) Preparation of FLAG-fused Vpr was performed by transcription and translation from the T7 promoter employing the TNT-coupled wheat germ extract in vitro transcription/translation system (wheat germ extract transcription/translation system) (Promega). […] Whether these products were Vpr was analyzed by carrying out western blotting according to typical procedures employing an anti-FLAG antibody after samples resulting from transcription and translation in the absence of the radiolabel were denatured with SDS (sodium dodecylsulfate). […]

FLAG-fused VprΔC = target: T2, FLAG-fused VprΔC (Human immunodeficiency virus type 1 group M subtype B, UniProt P12520); assay: as above; design: species or system HIV; conditions: FIG. 2 (2) lane 5
T2 construct: made in house; host or cells: TNT-coupled wheat germ extract in vitro transcription/translation (Promega), with 35S-methionine
From the text: The DNA fragment of interest (300 bp) was recovered from PCR reaction products by agarose gel electrophoresis, and then cloned into the pGEM-T vector (Promega). This fragment was base analyzed on both plus and minus strands and was verified to correspond to the intended fused Vpr. The vector into which the Vpr gene fused to FLAG has been incorporated is hereinafter referred to as pGEM-T/Vpr-wt. Furthermore, using this pGEM-T/Vpr-wt as a template, a second Vpr gene fused to FLAG in which a C-terminal region of Vpr (a.a. 73–96) was deleted was obtained by PCR utilizing primers shown below (SEQ ID Nos:4 and 5).
This fused gene was cloned into the pGEM-T vector as described above, and the resulting vector is hereinafter referred to as pGEM-T/VprΔC. […]
as §1

Vpr = Vpr (Human immunodeficiency virus type 1 group M subtype B, UniProt P12520); conditions: literature, Shimura M. et al. 1999; cited from earlier work
Chain of Vpr (P12520 whole entry): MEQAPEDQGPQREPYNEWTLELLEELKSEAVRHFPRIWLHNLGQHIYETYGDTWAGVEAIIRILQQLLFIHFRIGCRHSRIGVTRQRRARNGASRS

T1 sequence (P12520 whole entry, the tested form may be a part): as the sequence (P12520 whole entry) above
T2 sequence (P12520 1-72, stated change not applied): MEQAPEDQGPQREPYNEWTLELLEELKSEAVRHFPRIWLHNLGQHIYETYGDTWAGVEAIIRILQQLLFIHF

COc1ccc(S(=O)(=O)Nc2c(/C=C/c3ccncc3)cccc2OCCN)cc1 [compound B, (E)-4-[2-{3-(2-aminoethyloxy)-2-[N-(4-methoxybenzenesulfonyl)amino]phenyl}ethenyl]pyridine]
effects of the compound after pre-treatment with quercetin (HeLa; HeLa cells, 1.0 μM quercetin for 48 hours, then compound 600 nM for 72 hours): disappear almost completely | cell cycle state, cell morphology under a microscope (HeLa; HeLa cells, compound 600 nM alone, 72 hours, compared with the control group): the cell cycle is arrested at the G2/M period | number of multinucleate cells having plural nuclei within single cells (HeLa; compound 600 nM alone, 72 hours, compared with the control group): apparently increased | binding of radiolabeled FLAG-fused Vpr to compound-immobilized beads (FLAG-fused Vpr; affinity precipitation, FIG. 2 (2) lane 3): observed to bind | region of Vpr to which the compound binds (FLAG-fused Vpr; concluded from binding to Vpr and no binding to VprΔC): binds directly to the C-terminal region | binding of radiolabeled FLAG-fused VprΔC (C-terminal a.a. 73–96 deleted) to compound-immobilized beads (FLAG-fused VprΔC): not observed to bind

O=c1c(O)c(-c2ccc(O)c(O)c2)oc2cc(O)cc(O)c12 [quercetin]
effect on Vpr functions (Vpr): inhibits Vpr functions

Reference: patent US7148244B2, “Medicines in controlling Vpr function” (Nippon Shinyaku Co. Ltd., priority 2001, dated 2006)
